Data from patent US20030175824A1, “Drug candidate screening systems based on micropatterned hydrogels and microfluidic systems” (priority 2002, published 2003).

System: murine 3T3 fibroblasts
Settings: 0.05% sodium azide in PBS; cells stained red
Experimental: Hydrogel microstructures encapsulating murine 3T3 fibroblasts were fabricated using proximity photolithography. A PEG-diacrylate (PEG-DA, MW 575, Sigma-Aldrich or MW 4000, Polysciences) precursor solution containing 0.5% (w/w) DAROCUR 1173 (1-phenyl-2-hydroxy-2-methyl-1-propanone, Ciba Specialty Chemicals) as a photoinitiator was mixed with a cell suspension in cell culture media to produce a cell density about 4 to 5×10^6 cells/mL in the gel precursor solution. Fibroblasts were cultured on tissue culture polystyrene in Dulbecco's modified Eagle media (DMEM with 4.5 g/L glucose and 10% FBS, Sigma-Aldrich) and incubated at 37° C. in 5% CO2 and 95% air until near confluence. Cells were detached from culture flasks by trypsinization with 0.25% trypsin and 0.13% EDTA in phosphate buffered saline. Cells were transferred back to cell culture media and then added to the gel precursor solution. […]
The viability of individual cells in hydrogel microstructures with diameters of 600 μm and 50 μm was investigated using Live/Dead Viability/Cytotoxicity fluorescence assay (Molecular Probes, Inc.) that stains live cells green and dead cells red. […]
The viability of cells encapsulated in hydrogel was also measured using an MTT (3(4,5-dimethylthiazol-2-yl)-2,5-diphenyl tetrazolium bromide) assay.

SMILES: [N-]=[N+]=[N-] [sodium azide]
- effect on encapsulated cells (control, LIVE/DEAD staining): killed the cells
